Here are results for 3 molecules from US20110189669A1, “METHODS OF AIDING IN THE DIAGNOSIS OF PROSTATE CANCER” (IMPERIAL INNOVATIONS LIMITED, priority 2008, published 2011).

In test [1] the test system is GNMT. As to conditions: cited from earlier work.
Test [2] relates to LNCaP cells. Kind of test: LNCaP cell growth (Sulphorhodamine B cell staining / cell numbers). In kind it is cell-based. The procedure: A) LNCaP cell growth is stimulated by the synthetic androgen R1881 (1 nM), as measured using the Sulphorhodamine B cell staining assay.
LNCaP cells were cultured in the absence or presence of 1 nM R1881 and increasing concentrations of SAH for 6 days at which point cell numbers were measured.
Biological methylation reactions which utilise S-adenosylmethionine (SAM) as a methyl donor encompass several key cellular and metabolic processes and include the methylation of phospholipids, proteins, DNA and RNA. This class of reaction is carried out by methyltransferases that are represented by a diverse group of distantly related proteins (8-10), with domains that catalyse the transfer of the methyl group from SAM to a molecular substrate, together with the in-situ generation of SAH. For most methyltransferases, SAH is known to have a higher affinity than SAM for the catalytic site, thereby acting as a potent feedback inhibitor of methyltransferase activity within the cell. […] In most tissues, the balance between SAM and SAH and the subsequent regulation of global methylation activity resides in the ability to rapidly metabolise SAH through the enzyme S-adenosylhomocysteine hydrolase (SAH hydrolase). […] GNMT is a phylogenetically conserved enzyme (12) that methylates Glycine to produce N-Methyl Glycine (sarcosine), which is known to be largely physiologically inert, and also generates SAH. […]
For orientation: The SRB assay estimates cell density from bound dye.

The test system of test [3] is LNCaP cells. Put plainly: gene expression microarray of androgen-regulated genes in LNCaP cells. In kind it is cell-based. The method, then: Microarray analysis was carried out on RNAs prepared from three bioreplicate cultures for the no ligand and R1881 treatments.
In order to identify androgen-regulated genes in LNCaP cells, we have performed gene expression microarray profiling using the Applied Biosystems Genome Survey Microarray V2.0. […] These genes include known androgen-responsive genes, including PSA (KLK3), KLK2, DRG-1 and TMPRSS2.
Detailed time course studies were undertaken to determine the time of androgen treatment for optimal expression of androgen-responsive genes (PSA and DRG-1) in the LNCaP cells (FIG. 1A-D). On the basis of these studies, RNA from […] bio-replicate cultures were prepared from LNCaP cells treated with androgen for 24 hours, as well as the no ligand control. The RNAs were subjected to RNA quality assays and validated by real-time RT-PCR for two control genes (GAPDH and RPLPO) and the androgen regulated genes PSA, DRG-1 and GREB-1. […] Three replicates from each treatment set were subsequently used for hybridisation to the Applied Biosystems (ABI) Human Genome Survey Microarray V2.0, which has probes for 29,098 genes, representing the most comprehensive coverage currently available for any human gene expression microarray platform. Raw data were quality assessed and filtered according to the recommendations supplied by the ABI1700 Data Analysis User Guide and the filtered data “vsn normalised” (4). Differential expression was assessed using liner models and empirical Bayes algorithms as described in (5). This analysis has robustly defined 456 probes whose expression was stimulated by androgen by two fold or greater, with positive lod scores (B values) for differential expression.

For `Nc1ncnc2c1ncn2[C@@H]1O[C@H](CSCC[C@H](N)C(=O)O)[C@@H](O)[C@H]1O` [SAH, S-adenosyl-homocysteine], the “inhibition of GNMT (literature statement)” value in test [1] was “relatively insensitive”. Further, the “effect on androgen-stimulated growth of LNCaP cells” value in test [2] (1 nM R1881 plus increasing concentrations of SAH, 6 days) was “potentiates the androgen-stimulated growth”.

Regarding `C[C@]1(O)CC[C@H]2[C@@H]3CCC4=CC(=O)CCC4=C3C=C[C@@]21C` [R1881], the LNCaP cell growth result in test [2] (R1881 1 nM, Sulphorhodamine B assay) is “stimulated”. In test [3] (24 hours androgen treatment), the “up-regulation of DRG-1 expression” value is listed as 24 fold, the “up-regulation of KLK2 expression” value is recorded as 32 fold, the “up-regulation of PSA (KLK3) expression” value came out at 30 fold and the “up-regulation of TMPRSS2 expression” value is 16 fold. For the same molecule, in test [3] (within 24 hours of androgen treatment), the “increase in GNMT gene expression” value is given as 16 fold.

As to `Nc1nc2ncc(CNc3ccc(C(=O)N[C@@H](CCC(=O)O)C(=O)O)cc3)nc2c(=O)[nH]1` [Folic acid], the “inhibition of GNMT (literature statement)” value in test [1] is recorded as “allosteric inhibitor”.
